In publication PMC4678293, “Identification of a lead like inhibitor of the hepatitis C virus non-structural NS2 autoprotease” (Antiviral Research, 2015):
Several values for one entry are separate records, joined by “and”; a condition that tells them apart may be missing. Equal entries are not always repeated. Entries after “also recorded” stand apart in the source; their conditions may differ. Where two headings read alike, the source gives them in different places.

Tests used:
[1] = biological target: T1, NS2 autoprotease (NS2-NS3-FLAG, JFH-1 isolate, genotype 2a) (Hepatitis C virus genotype 2a, UniProt Q99IB8); experiment: in vitro NS2 autoprotease assay: recombinant NS2-NS3-FLAG proteolysis, NS3-FLAG product quantified by western blot; assay type: biochemical; conditions: 16 h
T1 construct: made in house
T1 sequence (Q99IB8 908-1210): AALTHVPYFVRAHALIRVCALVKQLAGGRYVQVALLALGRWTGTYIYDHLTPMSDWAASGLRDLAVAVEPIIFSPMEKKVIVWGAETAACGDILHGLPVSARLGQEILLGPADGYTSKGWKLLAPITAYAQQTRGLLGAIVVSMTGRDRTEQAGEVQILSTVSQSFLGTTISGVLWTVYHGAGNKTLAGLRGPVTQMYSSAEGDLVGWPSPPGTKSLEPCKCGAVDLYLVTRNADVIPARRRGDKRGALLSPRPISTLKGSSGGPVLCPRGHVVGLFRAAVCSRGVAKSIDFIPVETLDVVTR
Procedure: NS2-NS3-FLAG (JFH-1 isolate, genotype 2a) was purified, and proteolysis reactions were performed as previously described ([Shaw et al., 2015]). Compounds were added to reactions prior to addition of NS2-NS3-FLAG by dilution from DMSO stocks (final DMSO 0.75%). Reactions were incubated at room temperature for 16 h, terminated by addition of Laemmli buffer and the NS3-FLAG proteolysis product quantified by western blot using M2 anti-FLAG monoclonal antibody (Sigma Aldrich) and IRDye 680RD Donkey anti-Mouse (LI-COR Biosciences) on an Odyssey imager (LI-COR). NS3-FLAG was normalised to DMSO control and a non-linear regression fitted with Prism 6 (GraphPad) to determine 50% effective concentration (EC50).
Firstly, compounds were tested for the ability to block production of a substrate product of the NS2 autoprotease in an in vitro assay. This assay, using a recombinant NS2-NS3-FLAG precursor purified under denaturing conditions, measured NS2 autoprotease activity using quantitative western blot to monitor a proteolysis product (NS3-FLAG) ([Foster et al., 2010], [Shaw et al., 2015], [Tedbury and Harris, 2007]).

NS5A = experiment: western blot for NS5A in lysates of SGR-luc-NS2-5B(JFH-1) electroporated Huh7.5 cells; assay type: cell-based, Hepatitis C virus; conditions: 52 h.p.e.
Procedure: 2 × 10^6 cells were seeded in a 10 cm dish and incubated as indicated. Cells were washed in PBS and lysed in 100 μl PLB. Clarified lysates were analysed by 15% SDS-PAGE and western blot. Anti-GAPDH (Abcam) (1:20,000) or anti-NS5A ([Macdonald et al., 2003]) (1:5000) were followed by IRDye 680RD Donkey anti-Mouse or IRDye 800CW Donkey anti-Rabbit (LI-COR BioSciences) (1:10,000) respectively. Imaging was performed using an Odyssey Imager (LI-COR).

Huh7.5 cells [2] = experiment: cell viability by MTT in Huh7.5 cells electroporated with SGR-luc-NS2-5B(JFH-1); assay type: cell-based; conditions: for CC50: MTT, Huh7.5, 48 h.p.e., single experiments in duplicate, read-out: Cell viability CC50, individual experiment
Procedure: (§1) For cytotoxicity assay, media was removed and cells were incubated in 1 mM thiazolyl blue tetrazolium bromide (MTT) for >2 h. MTT crystals were resuspended in 100 μl DMSO and absorbance at 570 nm quantified using an infinite F50 plate reader (Tecan). Alternatively, cytotoxicity was analysed using the ATPLite kit following the manufacturer's instructions, with light emission quantified using a BMG Labtech Fluostar plate reader.
(§2) Firefly luciferase was measured as in Section 2.4. Data was normalised to DMSO controls and EC50/CC50 determined using Prism 6 (GraphPad).

[3] = as above; assay type: cell-based; conditions: human, Huh7.5 cells electroporated with SGR-luc-NS2-5B(JFH-1); for CC50 at 48 h: MTT, Huh7.5, 48 h.p.e., Fig. 2D, read-out: Cell viability CC50, across experimental repeats
Procedure: as §1, §2

[4] = system: SGR-luc-NS2-5B(JFH-1) sub-genomic replicon; experiment: transient replication assay: SGR-luc-NS2-5B(JFH-1) RNA electroporated into Huh7.5 cells, luciferase; assay type: cell-based, Hepatitis C virus
Procedure: For transient SGR experiments, in vitro transcripts (2 μg) of firefly luciferase-containing SGR were electroporated into 4 × 10^6 Huh7.5 cells ([Blight et al., 2002]) or Huh7 cells at 950 μF and 270 V. 2 × 10^4 cells/well were seeded in a 96 well plate. At 4 h post electroporation (h.p.e.) media was replaced with media containing compounds.
as §2

[5] = system: SGR-feo-NS2-5B(JFH-1) sub-genomic replicon; experiment: luciferase assay in Huh7.5 cells stably harbouring SGR-feo-NS2-5B(JFH-1); assay type: cell-based, Hepatitis C virus; conditions: Huh7.5, 48 h
Procedure: (§3) Selection and maintenance of Huh7.5 cells stably harbouring SGR-feo-NS3-5B ([Wyles et al., 2009], [Wyles et al., 2007]) or SGR-feo-NS2-5B derived from JFH-1 (genotype 2a) and Con1 (genotype 1b) has previously been reported ([Shaw et al., 2015]). Cells were maintained in Dulbecco's modified Eagle's medium (DMEM) supplemented with 10% FBS, 100 IU penicillin ml^−1, 100 μg streptomycin ml^−1, 1% non-essential amino acids and 300 μg/ml G418 in a humidified incubator at 37 °C in 5% CO2. For screening, 2 × 10^4 cells/well were seeded in a 96-well plate in the absence of G418 and compounds were added to 10 μM final concentration by dilution from DMSO stocks. At 72 h, cells were washed in PBS and lysed in 30 μl/well Passive Lysis Buffer (PLB: Promega). Luciferase activity was quantified by automated addition of 40 μl LarI reagent (Promega) and light emission recorded over 6 s using a BMG Labtech Fluostar plate reader. Statistical significance was determined using the Student's t test.
as §2
Additionally, compounds were tested for the ability to specifically perturb NS2-dependent HCV genome replication in a cell-based assay. […]

Huh7.5 cells [6] = experiment: cell viability by MTT in Huh7.5 cells electroporated with Jc1-NLuc; assay type: cell-based; conditions: Jc1-NLuc electroporated Huh7.5, 48 h.p.e.; read-out: Cell viability, MTT CC50, individual experiment
Procedure: as §1
(§4) For HCVcc experiments, 5 μg of Jc1-NLuc ([Amako et al., 2015]) transcript was electroporated into Huh7.5 cells and treated with compound as described in Section 2.5. Cytotoxicity or NanoLuc (NLuc) activity was measured at 48 h incubation with compound. Cells were lysed as in Section 2.4. Following the addition of 50 μl/well Nano-Glo Luciferase Assay Substrate (Promega) light emission was recorded using a BMG Labtech Fluostar plate reader and data analysed as in Section 2.5.

[7] = as above; assay type: cell-based; conditions: human, Jc1-NLuc electroporated Huh7.5, 48 h.p.e.
Procedure: as §1, §4

[8] = system: SGR-feo-NS3-5B(Con1) sub-genomic replicon; experiment: luciferase assay in Huh7.5 cells stably harbouring SGR-feo-NS3-5B(Con1), independent of NS2; assay type: cell-based, Hepatitis C virus; conditions: 10 μM, Huh7.5 stable cells
Procedure: as §3
(§5) Additionally, compounds were tested for the ability to specifically perturb NS2-dependent HCV genome replication in a cell-based assay. Compounds were tested against cells stably harbouring a HCV sub-genomic replicon (SGR) comprising either NS2-5B or NS3-5B with a firefly luciferase-neomycin phosphotransferase reporter ([Shaw et al., 2015], [Wyles et al., 2009], [Wyles et al., 2007]). […]

[9] = cell viability by ATPLite in SGR-feo-NS2-5B(JFH-1) harbouring Huh7.5 cells; assay type: cell-based; conditions: human, Huh7.5 cells harbouring SGR-feo-NS2-5B(JFH-1) replicon
Procedure: as §1, §2

Huh7.5 cells [10] = experiment: cytotoxicity at 25 μM in Huh7.5 cells, MTT or ATPlite assay; assay type: cell-based; conditions: 48 h
Procedure: as §1

[11] = system: Jc1-NLuc (genotype 2a chimeric Jc1, infectious HCV); experiment: HCVcc assay: Jc1-NLuc RNA electroporated into Huh7.5 cells, NanoLuc activity; assay type: cell-based, Hepatitis C virus
Procedure: as §4

[12] = system: SGR-feo-NS2-5B(Con1) sub-genomic replicon, genotype 1b; experiment: luciferase assay in Huh7.5 cells stably harbouring SGR-feo-NS2-5B(Con1); assay type: cell-based, Hepatitis C virus; conditions: 10 μM, Huh7.5 stable cells, p = 0.0006
Procedure: as §3, §5

[13] = 10-point dose response, in vitro proteolysis, * mean ± SD of three experimental repeats, read-out: JFH1 NS2-3 EC50
[14] = Hepatitis C virus, Huh7.5, transient SGR-luc-NS2-5B(JFH-1), Huh7.5, 4-48 h.p.e., Fig. 2D, read-out: NS2-5B SGR EC50, mean ± SD across experimental repeats
[15] = transient SGR-luc-NS2-5B(JFH-1), Huh7.5, 48 h.p.e., single experiments in duplicate, read-out: NS2-5B SGR EC50, individual experiment

CC1(C(=O)N2CCC3(C=Cc4ccccc43)CC2)CCCCC1 [160–1, 1-[(1-Methylcyclohexyl)carbonyl]-spiro[indene-1,4’-piperidine]]
EC50 [1, 13]: 43 ± 0.5 µM

O=C(C1CCCCC1)N1CCC2(C=Cc3ccccc32)CC1 [160–2, 1’-[(Cyclohexyl)carbonyl]-spiro[indene-1,4’-piperidine]]
EC50 [1, 13]: 68.4 ± 5.6 µM
melting point: 134 to 135 °C

CCC[C@H](NC(=O)[C@@H]1[C@H]2CCC[C@H]2CN1C(=O)[C@@H](NC(=O)[C@@H](NC(=O)c1cnccn1)C1CCCCC1)C(C)(C)C)C(=O)C(=O)NC1CC1 [Telaprevir, reference compound]
NS5A relative to DMSO control, western blot (NS5A; Telaprevir at 100 nM): comparable reduction in NS5A
CC50 (Huh7.5 cells [2]): > 31.6 µM
CC50 at 48 h [3]: > 31.6 µM
EC50 ([4]; Hepatitis C virus, Huh7.5, 48 h, transient SGR-luc-NS2-5B(JFH-1), Huh7.5, 48 h.p.e., single experiments in duplicate, read-out: NS2-5B SGR EC50, individual experiment): 0.206 µM
EC50 [4, 14]: 0.176 ± 0.023 µM
luciferase activity time course ([4]; Telaprevir at 100 nM, compared with 160 at 25 μM): comparable profile
EC50 [4, 15]: 0.146 µM

CC1(C(=O)N2CCC3(CC2)c2ccccc2[C@@H](N)[C@@H]3O)CCCCC1 [Compound 160, (2R, 3R)-3-amino-1′-[(1-methylcyclohexyl)carbonyl]-2,3,dihydrospiro[indene-1,4′-piperidine]-2-ol]
EC50 ([5]; Hepatitis C virus, read-out: ff Luc EC50, SGR-feo-NS2-5B(JFH-1) stable cells, Huh7.5, 48 h, one representative experiment): 43.4 µM
EC50 ([5]; read-out: ff Luc EC50, SGR-feo-NS2-5B(JFH-1) stable cells, one representative experiment): 43.4 µM
NS5A relative to DMSO control, western blot (NS5A; 160 at 25 μM): comparable reduction in NS5A
EC50 [1, 13]: 44.6 ± 6.2 µM
EC50 ([1]; Fig. 1B dose response, read-out: EC50, reduction of NS3-FLAG product in the in vitro NS2 autoprotease assay): 39 µM
concentration at which modest cytotoxic effects were observed (Huh7.5 cells [2]): ≥ 95 µM
CC50 (Huh7.5 cells [2]): > 100 µM
viability at 300 µM ([3]; 300 μM, read-out: cell viability at maximal attainable concentration): 40%
CC50 at 48 h [3]: > 100 µM
CC50 (Huh7.5 cells [6]): 81.2 µM and 155 µM
CC50 at 48 h ([7]; mean ± SD of three experiments, read-out: Cell viability, MTT CC50, mean): 110 ± 40 µM
CC50 at 48 h ([7]; read-out: Cell viability, MTT CC50, individual experiment): 93 µM
luciferase activity relative to DMSO control, SGR-feo-NS3-5B(Con1) [8]: no effect; also recorded: without affecting luciferase activity
CC50 at 48 h [9]: > 100 µM
cytotoxicity at 25 μM (Huh7.5 cells [10]): no observed cytotoxicity
EC50 ([11]; Hepatitis C virus, Huh7.5, read-out: Jc1-NLuc EC50, mean, Huh7.5, treated 4 to 48 h.p.e., mean ± SD of three experiments): 17.3 ± 8.1 µM
EC50 ([11]; read-out: Jc1-NLuc EC50, individual experiment, Huh7.5, 48 h.p.e., three biological replicates): 24.4 µM and 18.9 µM and 8.54 µM
luciferase activity relative to DMSO control, SGR-feo-NS2-5B(Con1) [12]: significantly reduced; also recorded: reduces luciferase activity
luciferase activity time course relative to DMSO control ([4]; 160 at 25 μM, added 4 h.p.e., read every 4 h for 48 h): reduction in luciferase activity and a lag in detectable luciferase activity
selectivity index ([4]; CC50/EC50, transient SGR, no accurate CC50): > 5
EC50 [4, 14]: 12 ± 6.4 µM
EC50 [4, 15]: 20.2 µM and 13.6 µM and 5.65 µM and 8.46 µM
